The text below walks through data of a melting point compilation (Tetko et al.).

One may read the melting point as the temperature of the solid-liquid transition.

Consider `C=C[Si](c1ccccc1)(c1ccccc1)c1ccccc1`, for which the melting point lay in the range of 63 to 70 °C.
As to `Cc1ccc(/C=C2\CCC/C(=C\c3ccc(C)s3)C2=O)s1`, the melting point was found to be 166 °C.
Next, `Cc1ccccc1NC(N)=S`: 162 °C; `COCC(=O)c1ccccc1`: 8 °C.
Molecule `CC(=O)OC1CC2C(C)C(=O)C3(C(OC(C)=O)CC4C5(C)CCCC4(C(OC(C)=O)OC5)C13)C2OC(C)=O` (stereo not drawn) displayed a melting point of 104 °C.
For `CCC(O)c1cc(C)ccc1O` (stereo not drawn), the melting point stood at 143 °C.
For `Cc1nc(S(=O)(=O)Cl)cn1C` the value was 91 to 94 °C.
Next, `O=C(O)[C@@H]1Cc2ccccc2CN1C(=O)OCC1c2ccccc2-c2ccccc21`: 146 to 149 °C; `Cn1cc(Br)c(C=O)n1`: 71 to 72 °C; `N#C[C@@H]1CCCC[C@H]1O` (relative stereo): 46 to 49 °C.
Next, `CCCCOCCOCCOC(=O)CCCCC(=O)OCCOCCOCCCC`: -47 °C; `Cc1c(Cl)c(C)c(Cl)c(Cl)c1Cl`: 223 °C; `O=C(O)c1cccc(F)c1C(=O)O`: 171 to 175 °C.
In turn, `CCOC(=O)c1cccc(Oc2cncc(C)n2)c1` returned a melting point of 50.5 to 51.5 °C.
With `CCCCC(C)CCO` (stereo not drawn), the melting point was -90 °C.
Molecule `COc1cc(I)c(OC)cc1C` registered a melting point of 84 to 86 °C.
Next, `CC(=O)n1c(C)cc2cc3c(cc21)=NC(C)C=3` (stereo not drawn): 279 °C; `COc1ccc(-c2nn3c(C)nnc3s2)cc1`: 177 °C.
With `CC(=O)Oc1ccc2c(c1)CCC1C2CCC2(C)C(=O)C(OC(C)=O)CC12` (stereo not drawn), the melting point is 180 °C.
Molecule `COP(=S)(Oc1cc(Cl)c(Br)cc1Cl)c1ccccc1` (stereo not drawn) returned a melting point of 70.4 °C.
Molecule `O=S(=O)(Cl)c1ccc(-c2ccc(Cl)cc2)cc1` had a melting point of 109 to 110 °C.
For `CC(=O)c1csc2ccc(Br)cc12` the value was 87 to 90 °C; for `c1ccc(CNc2ccccc2)cc1`, 37.5 °C; for `Cc1ccc(S(=O)(=O)n2cc(C=O)c3ccccc32)cc1`, 138 to 140 °C.
For `c1ccc2c(c1)ccc1nc3ccc4ccccc4c3cc12`, the melting point worked out at 216 °C.
As for `O=C1OC(c2ccccc2)=NC1=Cc1ccc([N+](=O)[O-])cc1`, the melting point was 214 to 215 °C.
In turn, `O=[N+]([O-])c1ccc(S(=O)(=O)Oc2ccccc2)cc1` gave a melting point of 114 to 116 °C.
For `CCOC(=O)c1cc(C)n(-c2cc(C)[nH]n2)n1` the value was 120 to 122 °C; for `CN(C)C(=O)Nc1ccc(-n2nc(C(C)(C)C)oc2=O)c(Cl)c1`, 193 °C; for `O=Cc1ccc2nsnc2c1`, 90 to 92 °C.
Consider `COc1c(OC)c(OC(C)=O)c2c(Cl)cccc2c1OC(C)=O`, for which the melting point was 134 °C.
For `CC(=O)O[C@H]1CCCC2=CC(=O)CC[C@@]21C` the value was 89 to 90 °C.
The molecule `COc1ccc(C(C)=NO)cc1OC` returned a melting point of 147 to 150 °C.
In turn, `Nc1ccc(C=O)cc1` displayed a melting point of 71.5 °C.
Next, `CC1(C)CON(Cc2ccccc2Cl)C1=O`: 33.9 °C; `CCOC(=O)C(Br)C(C)Br` (stereo not drawn): 58.5 °C; `Cc1c(NC(=O)c2cccnc2)c(=O)n(-c2ccccc2)n1C`: 253 °C.
Next, `NS(=O)(=O)c1cccc(/C(=N\O)c2ccccc2)c1`: 155 °C.
In turn, `Brc1ccc(Oc2cc(Br)c(Br)cc2Br)c(Br)c1` showed a melting point of 82 °C.
Next, `Nc1ccc(-c2ccc(N)c(Cl)c2)cc1Cl`: 132 °C; `Nc1ccccc1/C=C/c1ccccc1`: 106 °C.
Next, `CC(=O)Nc1cccc(N=Nc2cccc(NC(C)=O)c2)c1`: 272 °C; `Cc1ccccc1NC=O`: 62 °C.
